How the values were obtained:
Type in all cases: cell-based
GLP-1R [1] = target: T1, GLP-1R (Homo sapiens, UniProt P43220); experiment: CreLuc method (CRE-luciferase reporter), HEK293/pGM-CREB-L-Luc/GLP-1R pool; details: 6 h incubation, read-out: EC50 (pM) for each receptor GLP-1R
T1 construct: expressed in transfected cells
Summary of the method: (§1)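 Stable HEK293 pools co-expressing each receptor with a CRE-luciferase reporter were plated at 20,000 cells/well in freestyle medium and treated with compound dilution series for 6 h at 37 °C. Luminescence was read with ONE-GLO to derive EC50.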

GIPR [2] = target: T2, GIPR (Homo sapiens, UniProt P48546); experiment: CreLuc method (CRE-luciferase reporter), HEK293/pGM-CREB-L-Luc/GIPR pool; details: 6 h incubation, read-out: EC50 (pM) for each receptor GIPR
T2 construct: expressed in transfected cells
T2 sequence (P48546 22-466): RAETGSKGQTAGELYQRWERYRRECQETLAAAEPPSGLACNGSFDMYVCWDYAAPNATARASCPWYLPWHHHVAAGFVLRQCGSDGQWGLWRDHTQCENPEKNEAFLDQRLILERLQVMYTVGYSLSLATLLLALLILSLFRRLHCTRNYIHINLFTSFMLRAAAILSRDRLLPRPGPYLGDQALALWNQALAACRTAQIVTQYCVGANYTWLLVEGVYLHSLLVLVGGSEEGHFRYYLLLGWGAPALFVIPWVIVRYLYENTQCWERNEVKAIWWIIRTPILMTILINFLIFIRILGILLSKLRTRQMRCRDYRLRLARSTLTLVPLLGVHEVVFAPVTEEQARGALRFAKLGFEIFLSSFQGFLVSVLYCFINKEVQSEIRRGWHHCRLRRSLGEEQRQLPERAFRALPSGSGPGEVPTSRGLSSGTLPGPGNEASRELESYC
Summary of the method: as §1

GCGR [3] = target: T3, GCGR (Homo sapiens, UniProt P47871); experiment: CreLuc method (CRE-luciferase reporter), 293HEK/pGM-CREB-L-Luc/GCGR pool; details: 6 h incubation, read-out: EC50 (pM) for each receptor GCGR
T3 construct: expressed in transfected cells
Summary of the method: as §1

GLP-1R [4] = target: T1, GLP-1R; experiment: cAMP method (HTRF cAMP detection kit), HEK293/pGM-CREB-L-Luc/GLP-1 pool; details: read-out: EC50 (pM) for each receptor GLP-1R
Protocol: (§2) 2. Insulinotropic analogues can bind to target receptors on the cell membrane, activate the receptors, and induce release. The activity of the test substance can be determined using the HTRF method with a cAMP detection kit. Therefore, the cAMP method can be used to detect the target peptide derivatives (or polypeptide derivatives, i.e., TG1-TG86) prepared in Example 1 and Example 2. […] The test cell line was selected, treated with cAMP-specific trypsin for digestion. 3 mL of serum-free DMEM culture medium was added, and the cells were pipetted, resuspended, and counted. 5 µL of IBMX (prepared with serum-free DMEM medium, 0.5 mM) and test cells (5 µL/7500 cells/well) were added in a 384-well plate sequentially. The plate was incubated at 37°C under 5% CO2 for 30 min, followed by the addition of cAMP-d2 (5 µL, 1x) and Anti-cAMP-Cryptate (5 µL, 1x). The mixture was kept at room temperature for 1 h, after which the HTRF value was measured using a chemiluminescent microplate reader, and the determination result was recorded. […] Table 4: EC50 values for target peptide derivatives

GIPR [5] = target: T2, GIPR; experiment: cAMP method (HTRF cAMP detection kit), HEK293/pGM-CREB-L-Luc/GIP pool; details: read-out: EC50 (pM) for each receptor GIPR
Protocol: as §2

GCGR [6] = target: T3, GCGR; experiment: cAMP method (HTRF cAMP detection kit), HEK293/pGM-CREB-L-Luc/GCG pool; details: read-out: EC50 (pM) for each receptor GCGR
Protocol: as §2

T3 sequence (P47871 26-477, species assumed): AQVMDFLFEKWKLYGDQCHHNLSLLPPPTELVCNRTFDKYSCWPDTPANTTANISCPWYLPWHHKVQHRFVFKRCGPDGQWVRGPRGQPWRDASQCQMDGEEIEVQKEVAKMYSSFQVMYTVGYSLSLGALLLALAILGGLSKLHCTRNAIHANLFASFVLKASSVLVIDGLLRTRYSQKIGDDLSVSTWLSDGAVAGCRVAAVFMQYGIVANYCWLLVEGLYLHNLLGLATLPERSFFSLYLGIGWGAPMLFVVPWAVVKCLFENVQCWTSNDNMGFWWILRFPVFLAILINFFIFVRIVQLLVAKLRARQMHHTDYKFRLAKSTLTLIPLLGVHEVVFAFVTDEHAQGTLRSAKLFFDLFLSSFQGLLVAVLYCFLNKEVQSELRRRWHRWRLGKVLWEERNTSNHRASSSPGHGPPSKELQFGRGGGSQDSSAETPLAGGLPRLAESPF
T1 sequence (P43220 24-463, species assumed): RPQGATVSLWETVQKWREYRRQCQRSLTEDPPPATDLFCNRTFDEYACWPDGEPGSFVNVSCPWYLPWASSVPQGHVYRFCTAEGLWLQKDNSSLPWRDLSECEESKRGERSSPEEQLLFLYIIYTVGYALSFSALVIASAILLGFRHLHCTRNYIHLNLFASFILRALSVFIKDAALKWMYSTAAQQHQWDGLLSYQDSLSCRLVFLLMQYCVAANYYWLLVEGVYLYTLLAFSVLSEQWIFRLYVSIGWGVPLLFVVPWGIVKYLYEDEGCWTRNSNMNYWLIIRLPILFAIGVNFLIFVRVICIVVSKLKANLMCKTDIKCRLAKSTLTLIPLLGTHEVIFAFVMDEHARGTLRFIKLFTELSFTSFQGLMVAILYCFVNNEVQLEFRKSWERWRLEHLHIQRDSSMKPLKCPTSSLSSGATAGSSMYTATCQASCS

Structure (SMILES) | EC50 (GLP-1R [1]) [pM] | EC50 (GIPR [2]) [pM] | EC50 (GCGR [3]) [pM] | EC50 (GLP-1R [4]) [pM] | EC50 (GIPR [5]) [pM] | EC50 (GCGR [6]) [pM]
CC(C)C[C@H](NC(=O)[C@H](CC(C)C)NC(=O)[C@H](Cc1c[nH]c2ccccc12)NC(=O)[C@@H]1CSCC(=O)NCCN(C(=O)CCC(=O)NCCOCCOCC(=O)NCCOCCOCC(=O)NCCCC[C@H](NC(=O)CCCCCCCCCCCCCCCCCCC(=O)O)C(=O)O)CCNC(=O)CSC[C@H](NC(=O)[C@H](CCCCN)NC(=O)[C@H](CC(=O)O)NC(=O)[C@H](CC(C)C)NC(=O)[C@H](Cc2ccc(O)cc2)NC(=O)[C@H](CCCCN)NC(=O)[C@H](CO)NC(=O)[C@H](Cc2ccc(O)cc2)NC(=O)[C@H](CC(=O)O)NC(=O)[C@H](CO)NC(=O)[C@@H](NC(=O)[C@H](Cc2ccccc2)NC(=O)[C@@H](NC(=O)CNC(=O)[C@H](Cc2c[nH]cn2)NC(=O)C(C)(C)NC(=O)[C@@H](N)Cc2c[nH]cn2)[C@@H](C)O)[C@@H](C)O)C(=O)N[C@@H](Cc2ccc(O)cc2)C(=O)N[C@@H](C)C(=O)N[C@@H](CCC(N)=O)C(=O)N[C@@H](CC(=O)O)C(=O)N[C@@H](Cc2ccccc2)C(=O)N[C@@H](C(C)C)C(=O)N1)C(=O)N[C@@H](CCC(=O)O)C(=O)NCC(=O)NCC(=O)N1CCC[C@H]1C(=O)N[C@@H](CO)C(=O)N[C@@H](CO)C(=O)NCC(=O)N[C@@H](C)C(=O)N1CCC[C@H]1C(=O)N1CCC[C@H]1C(=O)N1CCC[C@H]1C(=O)N[C@@H](CO)C(N)=O [TG10] | 359 | 368 | 149 | 2.5 | 9.7 | 8.5
CC[C@H](C)[C@@H]1NC(=O)[C@H](Cc2ccccc2)NC(=O)[C@H](C)NC(=O)C(C)(C)NC(=O)[C@H](CCC(N)=O)NC(=O)[C@H](C)NC(=O)[C@@H](NC(=O)[C@H](CCCCN)NC(=O)[C@H](CC(=O)O)NC(=O)[C@H](CC(C)C)NC(=O)[C@H](CC(C)C)NC(=O)[C@@H](NC(=O)[C@H](CO)NC(=O)[C@H](Cc2ccc(O)cc2)NC(=O)[C@H](CC(=O)O)NC(=O)[C@H](CO)NC(=O)[C@@H](NC(=O)[C@H](Cc2ccccc2)NC(=O)[C@@H](NC(=O)CNC(=O)[C@H](CCC(N)=O)NC(=O)C(C)(C)NC(=O)[C@@H](N)Cc2ccc(O)cc2)[C@@H](C)O)[C@@H](C)O)[C@@H](C)CC)CSCC(=O)NCCN(C(=O)CCC(=O)NCCOCCOCC(=O)NCCOCCOCC(=O)NCCCC[C@H](NC(=O)CCCCCCCCCCCCCCCCCCC(=O)O)C(=O)O)CCNC(=O)CSC[C@@H](C(=O)N[C@@H](Cc2ccc(O)cc2)C(=O)N[C@@H](CC(C)C)C(=O)N[C@@H](CC(C)C)C(=O)N[C@@H](CCC(=O)O)C(=O)NCC(=O)NCC(=O)N2CCC[C@H]2C(=O)N[C@@H](CO)C(=O)N[C@@H](CO)C(=O)NCC(=O)N[C@@H](C)C(=O)N2CCC[C@H]2C(=O)N2CCC[C@H]2C(=O)N2CCC[C@H]2C(=O)N[C@@H](CO)C(N)=O)NC1=O [TG12] | 205 | 66.6 | 325 | 5.8 | 12.1 | 40.3
CC[C@H](C)[C@@H]1NC(=O)[C@H](Cc2ccccc2)NC(=O)[C@@H](NC(=O)C(C)(C)NC(=O)[C@H](CCC(N)=O)NC(=O)[C@H](C)NC(=O)[C@H](CCCCNC(C)=O)NC(=O)[C@H](CCCCN)NC(=O)[C@H](CC(=O)O)NC(=O)[C@H](CC(C)C)NC(=O)[C@](C)(CC(C)C)NC(=O)[C@@H](NC(=O)[C@H](CO)NC(=O)[C@H](Cc2ccc(O)cc2)NC(=O)[C@H](CC(=O)O)NC(=O)[C@H](CO)NC(=O)[C@@H](NC(=O)[C@H](Cc2ccccc2)NC(=O)[C@@H](NC(=O)CNC(=O)[C@H](CCC(N)=O)NC(=O)C(C)(C)NC(=O)[C@@H](N)Cc2ccc(O)cc2)[C@@H](C)O)[C@@H](C)O)[C@@H](C)CC)CSCC(=O)NCCN(C(=O)CCC(=O)NCCOCCOCC(=O)NCCOCCOCC(=O)NCCCC[C@H](NC(=O)CCCCCCCCCCCCCCCCCCC(=O)O)C(=O)O)CCNC(=O)CSC[C@@H](C(=O)NCC(=O)NCC(=O)N2CCC[C@H]2C(=O)N[C@@H](CO)C(=O)N[C@@H](CO)C(=O)NCC(=O)N[C@@H](C)C(=O)N2CCC[C@H]2C(=O)N2CCC[C@H]2C(=O)N2CCC[C@H]2C(=O)N[C@@H](CO)C(N)=O)NC(=O)[C@H](CC(C)C)NC(=O)[C@H](CC(C)C)NC(=O)[C@H](Cc2ccc(O)cc2)NC(=O)[C@H](CCC(=O)O)NC1=O [TG15] | 116 | 85.6 | 329 | 1.9 | 3.3 | 40.3
